Measurements from patent US10618903B2, “Heteroaryl substituted aminopyridine compounds” (BRISTOL-MYERS SQUIBB COMPANY, priority 2015, dated 2020).
pEC50, pIC50: −log10 of the molar value.

Experiments:
[1] = tested on: IL-6 levels in human whole blood stimulated with a TLR2 agonist; test: IRAK4 Whole Blood Assay (lipoteichoic acid/TLR2-stimulated IL-6); format: cell-based; conditions: lipoteichoic acid 10 μg/mL, IL-6 readout
Outline: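 ACD-A-anticoagulated human whole blood was preincubated with compounds for 60 min at 37 °C under 5% CO2. It was then stimulated with 10 μg/mL lipoteichoic acid (final) in RPMI for 5 h. IL-6 in plasma supernatants was measured by flow cytometry bead assay.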

Caco Permeability Assay = format: in vitro ADME; conditions: human, Caco-2, Caco-2 cells, 3 μM compound
IRAK4 = IRAK4 (Homo sapiens (Human), UniProt Q9NWZ3); test: IRAK4 Inhibition Assay; format: biochemical; conditions: ATP 500 μM; IRAK4 0.6 nM
Chain of IRAK4 (Q9NWZ3 whole entry): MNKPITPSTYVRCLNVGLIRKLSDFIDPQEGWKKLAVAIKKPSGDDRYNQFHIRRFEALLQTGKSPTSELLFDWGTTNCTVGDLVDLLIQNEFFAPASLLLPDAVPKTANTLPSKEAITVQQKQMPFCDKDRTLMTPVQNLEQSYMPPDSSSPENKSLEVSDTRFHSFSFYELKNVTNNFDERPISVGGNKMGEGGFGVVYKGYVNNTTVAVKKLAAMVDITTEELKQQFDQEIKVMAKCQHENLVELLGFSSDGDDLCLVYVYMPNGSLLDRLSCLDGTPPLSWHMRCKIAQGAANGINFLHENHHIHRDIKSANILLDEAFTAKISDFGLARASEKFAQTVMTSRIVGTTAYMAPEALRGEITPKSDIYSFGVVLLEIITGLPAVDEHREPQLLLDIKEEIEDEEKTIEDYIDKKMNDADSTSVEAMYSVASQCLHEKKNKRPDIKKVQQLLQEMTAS
Outline: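 Mobility-shift readout: phosphorylated and unphosphorylated fluorescent peptide (1.5 μM) resolved by electrophoresis after a 60 min room-temperature reaction stopped with EDTA. Reaction holds 0.6 nM IRAK4, 500 μM ATP and 1.6% DMSO in HEPES pH 7.2/MgCl2/Brij 35/DTT buffer; percent inhibition set against vehicle and no-enzyme controls.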

| SMILES | pEC50 ([1]; Homo sapiens) | Papp at 2 h, 3 µM (Caco Permeability Assay) | pIC50 (IRAK4) | pEC50 [1] |
| --- | --- | --- | --- | --- |
| CCn1cc(Nc2cc(-c3cnc4cc(C#N)cnn34)ncc2C(=O)NC[C@@H](F)C(C)(C)O)cn1 [Example 267, (R)-6-(7-cyanoimidazo[1,2-b]pyridazin-3-yl)-4-((1-ethyl-1H-pyrazol-4-yl)amino)-N-(2-fluoro-3-hydroxy-3-methylbutyl)nicotinamide] | 6.89 | < 1.5 ×10⁻⁶ cm/s | 8.70 |  |
| CC(C)(O)[C@H](F)CNC(=O)c1cnc(-c2cnn3cc(Cl)cnc23)cc1Nc1cnn(CC(F)F)c1 [Example 71, (R)-6-(6-chloropyrazolo[1,5-a]pyrimidin-3-yl)-4-((1-(2,2-difluoroethyl)-1H-pyrazol-4-yl)amino)-N-(2-fluoro-3-hydroxy-3-methylbutyl)nicotinamide] | 7.15 | 1.7 ×10⁻⁶ cm/s | 9.00 |  |
| CCCNc1cc(-c2cnc3cc(Cl)cnn23)ncc1C(=O)NC[C@@H](F)C(C)(C)O [Example 179, (R)-6-(7-chloroimidazo[1,2-b]pyridazin-3-yl)-N-(2-fluoro-3-hydroxy-3-methylbutyl)-4-(propylamino)nicotinamide] | 6.15 | 16.8 ×10⁻⁶ cm/s | 8.52 |  |
| CC(C)Nc1cc(-c2cnn3cc(Cl)cnc23)ncc1C(=O)N[C@H]1CC[C@H](NC(=O)[C@H](C)O)CC1 [Example 49, 6-(6-chloropyrazolo[1,5-a]pyrimidin-3-yl)-N-((1S,4r)-4-((S)-2-hydroxypropanamido)cyclohexyl)-4-(isopropylamino)nicotinamide] | 5.53 | < 1.5 ×10⁻⁶ cm/s | 7.74 |  |
| CC(C)(O)[C@H]1CC[C@H](NC(=O)c2cnc(-c3cnc4cc(C#N)cnn34)cc2Nc2cnn(C3CC3)c2)CC1 [Example 286, 6-(7-cyanoimidazo[1,2-b]pyridazin-3-yl)-4-((1-cyclopropyl-1H-pyrazol-4-yl)amino)-N-((1r,4r)-4-(2-hydroxypropan-2-yl)cyclohexyl) nicotinamide] | 6.74 | 5.5 ×10⁻⁶ cm/s | 8.70 |  |
| CC(C)(O)[C@H](F)CNC(=O)c1cnc(-c2cnn3cc(Cl)cnc23)cc1NC1CCCC1 [Example 67, (R)-6-(6-chloropyrazolo[1,5-a]pyrimidin-3-yl)-4-(cyclopentylamino)-N-(2-fluoro-3-hydroxy-3-methylbutyl)nicotinamide] | 5.51 | 18.4 ×10⁻⁶ cm/s | 8.70 |  |
| CC[C@@H](C)Nc1cc(-c2cnn3cc(C#N)cnc23)ncc1C(=O)NC[C@@H](F)C(C)(C)O [Example 97, 4-(((R)-sec-butyl)amino)-6-(6-cyanopyrazolo[1,5-a]pyrimidin-3-yl)-N—((R)-2-fluoro-3-hydroxy-3-methylbutyl)nicotinamide] | 5.80 | 8 ×10⁻⁶ cm/s | 8.40 |  |
| CC(C)(O)[C@H](F)CNC(=O)c1cnc(-c2cnc3cc(Cl)cnn23)cc1NC1CC1 [Example 144, (R)-6-(7-chloroimidazo[1,2-b]pyridazin-3-yl)-4-(cyclopropylamino)-N-(2-fluoro-3-hydroxy-3-methylbutyl)nicotinamide] | 6.64 | 13.4 ×10⁻⁶ cm/s | 8.52 |  |
| CC(C)(O)[C@H](F)CNC(=O)c1cnc(-c2cnc3cc(Cl)cnn23)cc1Nc1cnn(CC(F)F)c1 [Example 262, (R)-6-(7-chloroimidazo[1,2-b]pyridazin-3-yl)-4-((1-(2,2-difluoroethyl)-1H-pyrazol-4-yl)amino)-N-(2-fluoro-3-hydroxy-3-methylbutyl)nicotinamide] | 6.28 | 2.6 ×10⁻⁶ cm/s | 9.00 |  |
| CC1(Nc2cc(-c3cnc4cc(Cl)cnn34)ncc2C(=O)NC[C@H](F)C(C)(C)O)CC1 [Example 198, (S)-6-(7-chloroimidazo[1,2-b]pyridazin-3-yl)-N-(2-fluoro-3-hydroxy-3-methylbutyl)-4-((1-methylcyclopropyl)amino) nicotinamide] | 6.33 | 18.4 ×10⁻⁶ cm/s | 9.00 |  |
| CC(C)(F)Cn1cc(Nc2cc(-c3cnn4cc(C#N)cnc34)ncc2C(=O)NC[C@@H](F)C(C)(C)O)cn1 [Example 235, (R)-6-(6-cyanopyrazolo[1,5-a]pyrimidin-3-yl)-4-((1-(2-fluoro-2-methylpropyl)-1H-pyrazol-4-yl)amino)-N-(2-fluoro-3-hydroxy-3-methylbutyl)nicotinamide] | 6.70 | 2.3 ×10⁻⁶ cm/s | 8.70 |  |
| CC(C)Nc1cc(-c2cnc3cc(C#N)cnn23)ncc1C(=O)NCCC(C)(C)O [Example 186, 6-(7-cyanoimidazo[1,2-b]pyridazin-3-yl)-N-(3-hydroxy-3-methylbutyl)-4-(isopropylamino) nicotinamide] | 6.60 | 12.2 ×10⁻⁶ cm/s | 8.30 |  |
| CC(C)(O)[C@H](F)CNC(=O)c1cnc(-c2cnn3cc(Cl)cnc23)cc1NC1CCC1 [Example 60, (R)-6-(6-chloropyrazolo[1,5-a]pyrimidin-3-yl)-4-(cyclobutylamino)-N-(2-fluoro-3-hydroxy-3-methylbutyl)nicotinamide] | 5.31 | 27 ×10⁻⁶ cm/s | 8.40 |  |
| CC(C)Nc1cc(-c2cnc3cc(C#N)cnn23)ncc1C(=O)NCCC1(O)CCCC1 [Example 217, 6-(7-cyanoimidazo[1,2-b]pyridazin-3-yl)-N-(2-(1-hydroxycyclopentyl)ethyl)-4-(isopropylamino)nicotinamide] | 6.52 | 25.6 ×10⁻⁶ cm/s | 8.70 |  |

The remaining molecules from weak to strong by pIC50 (IRAK4), led by results:

| pEC50 ([1]; Homo sapiens) | Papp at 2 h, 3 µM (Caco Permeability Assay) | pIC50 (IRAK4) | pEC50 [1] | SMILES |
| --- | --- | --- | --- | --- |
| 6.35 | 1.8 ×10⁻⁶ cm/s | 8.05 |  | CC(C)n1cc(Nc2cc(-c3cnc4cc(C#N)cnn34)ncc2C(=O)NCCC(C)(C)O)cn1 [Example 287, 6-(7-cyanoimidazo[1,2-b]pyridazin-3-yl)-N-(3-hydroxy-3-methylbutyl)-4-((1-isopropyl-1H-pyrazol-4-yl)amino)nicotinamide] |
| 6.06 | < 1.5 ×10⁻⁶ cm/s | 8.10 |  | CC(C)(O)c1cnc(Nc2cc(-c3cnn4cc(Cl)cnc34)ncc2C(=O)NC[C@@H](F)C(C)(C)O)s1 [Example 2, (R)-6-(6-chloropyrazolo[1,5-a]pyrimidin-3-yl)-N-(2-fluoro-3-hydroxy-3-methylbutyl)-4-((5-(2-hydroxypropan-2-yl)thiazol-2-yl)amino)nicotinamide] |
| 6.44 | 1.9 ×10⁻⁶ cm/s | 8.22 |  | CC(C)(O)[C@H](F)CNC(=O)c1cnc(-c2cnn3cc(C#N)cnc23)cc1NCC(F)F [Example 171, (R)-6-(6-cyanopyrazolo[1,5-a]pyrimidin-3-yl)-4-((2,2-difluoroethyl)amino)-N-(2-fluoro-3-hydroxy-3-methylbutyl)nicotinamide] |
| 5.76 | 22.1 ×10⁻⁶ cm/s | 8.40 |  | CC(C)(O)[C@H]1CC[C@H](NC(=O)c2cnc(-c3cnn4cc(Cl)cnc34)cc2NC2COC2)CC1 [Example 40, 6-(6-chloropyrazolo[1,5-a]pyrimidin-3-yl)-N-((1r,4r)-4-(2-hydroxypropan-2-yl)cyclohexyl)-4-(oxetan-3-ylamino)nicotinamide] |
| 6.31 | 5.2 ×10⁻⁶ cm/s | 8.40 |  | CC(C)(O)[C@H](F)CNC(=O)c1cnc(-c2cnc3cc(Cl)cnn23)cc1NC1COC1 [Example 141, (R)-6-(7-chloroimidazo[1,2-b]pyridazin-3-yl)-N-(2-fluoro-3-hydroxy-3-methylbutyl)-4-(oxetan-3-ylamino)nicotinamide] |
| 6.15 | 3.7 ×10⁻⁶ cm/s | 8.40 |  | CC(C)(O)[C@H](F)CNC(=O)c1cnc(-c2cnc3cc(C#N)cnn23)cc1NC1CC(F)(F)C1 [Example 195, (R)-6-(7-cyanoimidazo[1,2-b]pyridazin-3-yl)-4-((3,3-difluorocyclobutyl)amino)-N-(2-fluoro-3-hydroxy-3-methylbutyl)nicotinamide] |
|  | < 1.5 ×10⁻⁶ cm/s | 8.52 | 6.18 | CC(C)(O)[C@H](F)CNC(=O)c1cnc(-c2cnn3cc(C#N)cnc23)cc1Nc1cnn(CC(F)(F)F)c1 [Example 236, (R)-6-(6-cyanopyrazolo[1,5-a]pyrimidin-3-yl)-N-(2-fluoro-3-hydroxy-3-methylbutyl)-4-((1-(2,2,2-trifluoroethyl)-1H-pyrazol-4-yl)amino) nicotinamide] |
| 6.24 | 2.9 ×10⁻⁶ cm/s | 8.52 |  | CCn1cc(Nc2cc(-c3cnc4cc(Cl)cnn34)ncc2C(=O)NC[C@@H](F)C(C)(C)O)cn1 [Example 266, (R)-6-(7-chloroimidazo[1,2-b]pyridazin-3-yl)-4-((1-ethyl-1H-pyrazol-4-yl)amino)-N-(2-fluoro-3-hydroxy-3-methylbutyl) nicotinamide] |
| 6.55 | < 1.5 ×10⁻⁶ cm/s | 8.70 |  | CC(C)Nc1cc(-c2cnc3cc(C#N)cnn23)ncc1C(=O)NCC(F)C1CCNCC1 (stereo not drawn) [Example 197, 6-(7-cyanoimidazo[1,2-b]pyridazin-3-yl)-N-(2-fluoro-2-(piperidin-4-yl)ethyl)-4-(isopropylamino)nicotinamide] |
| 6.89 | < 1.5 ×10⁻⁶ cm/s | 8.70 |  | CC(C)(O)[C@H](F)CNC(=O)c1cnc(-c2cnc3cc(C#N)cnn23)cc1Nc1cnn(C2CC(F)(F)C2)c1 [Example 259, (R)-6-(7-cyanoimidazo[1,2-b]pyridazin-3-yl)-4-((1-(3,3-difluorocyclobutyl)-1H-pyrazol-4-yl)amino)-N-(2-fluoro-3-hydroxy-3-methylbutyl)nicotinamide] |
